Source: publication PMC7366314 (ACS chemical biology, 2020)

How the values were obtained:
[1] = Ex vivo mouse plasma stability testing; format: in vitro ADME; settings: for plasma half-life, fold greater than the natural GLP-1 peptide: ex vivo mouse plasma, 10 μM, 37°C, LC/MS/MS
proteinase K = proteinase K (Parengyodontium album, UniProt P06873); test: Peptide proteolysis assay with proteinase K, intact peptide by LC/MS; settings: 50 mM Tris HCl pH 7.4, LC/MS
B6 mice = test: Glucose tolerance test; format: in vivo, mouse; settings: B6 mice fasted overnight, 10 nmol/kg IP, glucose 2 g/kg IP 30 min later
Leprdb mice = test: Anti-hyperglycemic effect in diabetic Leprdb; format: in vivo, mouse; settings: single IP injection 10 nmol/kg

Sequence of proteinase K (P06873 106-384): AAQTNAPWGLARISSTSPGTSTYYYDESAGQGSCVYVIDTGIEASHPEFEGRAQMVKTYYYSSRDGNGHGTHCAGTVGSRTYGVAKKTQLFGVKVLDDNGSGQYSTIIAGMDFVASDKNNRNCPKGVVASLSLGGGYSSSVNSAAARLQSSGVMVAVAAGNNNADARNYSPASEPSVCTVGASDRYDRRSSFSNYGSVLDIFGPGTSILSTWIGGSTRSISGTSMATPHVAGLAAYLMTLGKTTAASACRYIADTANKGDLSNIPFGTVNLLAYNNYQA

SMILES	plasma half-life, fold greater than the natural GLP-1 peptide [1] [fold]	fold improvement of proteinase K half-life compared to control (wild-type) GLP-1 (proteinase K)	time to euglycemia after the glucose bolus (GTT) (B6 mice) [min]	initial reduction in serum glucose (Leprdb mice; 15 min p=0.0032, 30 min p=0.0001 vs semaglutide)	fold reduction in glucose level compared to vehicle and wild-type GLP-1 (Leprdb mice; sustained for 12 hours, n=8)	half-life at 10 µM ([1]; mouse, plasma (freshly drawn, lithium heparin)) [h]
CC[C@H](C)[C@H](NC(=O)[C@H](Cc1ccccc1)NC(=O)[C@H](CCC(=O)O)NC(=O)[C@H](CCCCNC(=O)COCCOCCNC(=O)COCCOCCNC(=O)CC[C@H](NC(=O)CCCCCCCCCCCCCCCCC(=O)O)C(=O)O)NC(=O)[C@H](C)NC(=O)[C@H](C)NC(=O)[C@H](CCC(N)=O)NC(=O)CNC(=O)[C@H](CCC(=O)O)NC(=O)[C@H](CC(C)C)NC(=O)[C@H](Cc1ccc(O)cc1)NC(=O)[C@H](CO)NC(=O)[C@H](CO)NC(=O)[C@@H](NC(=O)[C@H](CC(=O)O)NC(=O)[C@H](CO)NC(=O)[C@@H](NC(=O)[C@H](Cc1ccccc1)NC(=O)[C@@H](NC(=O)CNC(=O)[C@H](CCC(=O)O)NC(=O)C(C)(C)NC(=O)[C@@H](N)Cc1cnc[nH]1)[C@@H](C)O)[C@@H](C)O)C(C)C)C(=O)N[C@@H](C)C(=O)N[C@@H](Cc1c[nH]c2ccccc12)C(=O)N[C@@H](CC(C)C)C(=O)N[C@H](C(=O)N[C@@H](CCCNC(=N)N)C(=O)NCC(=O)N[C@@H](CCCNC(=N)N)C(=O)NCC(=O)O)C(C)C [semaglutide, reference compound]	12					
CC[C@H](C)[C@@H]1NC(=O)[C@H](Cc2ccccc2)NC(=O)[C@H](CCC(=O)O)NC(=O)[C@H](CCCCN)NC(=O)[C@H](C)NC(=O)[C@H](C)NC(=O)[C@@]2(CCCC=CCCCCCC[C@@](C)(NC(=O)[C@H](CC(=O)O)NC(=O)[C@H](CO)NC(=O)[C@@H](NC(=O)[C@H](Cc3ccccc3)NC(=O)[C@@H](NC(=O)CNC(=O)[C@H](CCC(=O)O)NC(=O)C(C)(C)NC(=O)[C@@H](N)Cc3c[nH]cn3)[C@@H](C)O)[C@@H](C)O)C(=O)N[C@@H](CO)C(=O)N[C@@H](CO)C(=O)N[C@@H](Cc3ccc(O)cc3)C(=O)N[C@@H](CC(C)C)C(=O)N[C@@H](CCC(=O)O)C(=O)NCC(=O)N2)CCCC=CCCCCCC[C@@](C)(C(=O)N[C@@H](Cc2c[nH]c3ccccc23)C(=O)N[C@@H](CC(C)C)C(=O)N[C@H](C(=O)N[C@@H](CCCCN)C(=O)NCC(=O)N[C@@H](CCCNC(=N)N)C(N)=O)C(C)C)NC1=O [SAH-GLP-1-A8J(16,23,30)]	23	over 24 fold	≤ 60	more rapid, initial reduction in serum glucose compared to semaglutide	2–2.5 fold	5.33
